We go through one compound from patent US20220395500A1, “SMALL MOLECULE ACTIVATORS OF INTERFERON REGULATORY FACTOR 3 AND METHODS OF USE THEREOF” (Neuralexo, Inc., priority 2020, published 2022).

The structures appear in SMILES notation.

Assay [1] relates to IRF3 related genes in brain cortical tissue. As to the kind of experiment: DMXAA-induced IRF-related gene expression in mouse brain cortex. Type of assay: in vivo. As for the experimental part: FIG. 7A is a bar graph depicting DMXAA-induced induction of IRF-related gene expression in mice. […] RNA was extracted and qtPCR was performed with indicated primers. Data is depicted as mRNA fold-change versus vehicle. Values depicted are group means+/−SEM; n=4 per group.
Total RNA isolated from brain cortex, or RNA from cell culture, was reverse transcribed using an Omniscript Reverse Transcription kit (Qiagen). Quantitative PCR was performed using the TaqMan Gene Expression Assays (Applied Biosystems) on an ABI-prism 7700. Results were normalized to β-actin expression and analyzed relative to appropriate controls. The relative quantification of the gene of interest was determined using the comparative CT method (2^−ΔΔCt)
Values depicted are group means+/−SEM; n=4 per group.

For assay [2], the system named is ISRE-firefly luciferase reporter in RAW264.7 cells. Put plainly: RAW264.7 ISRE-firefly luciferase reporter assay. Type of assay: cell-based, mouse. The text has this: Data is depicted as fold increase ISRE activity vs matched vehicle, plotted against log[agonist] (M).
To characterize a small directed subset of molecules known to activate IRF3, mouse macrophage cells (RAW264.7) containing an ISRE-firefly luciferase reporter with a constitutively active renilla luciferase internal control for normalization (Promega) was utilized. IRF3 can activate ISRE through direct binding and via feed-forward mechanisms through potent induction of IFNβ. […] Specifically, RAW264.7 cells containing ISRE firefly luciferase reporter were treated with indicated compounds for 3 hours and luciferase activity was determined.
(In general: Reporter assays use an easily measured gene product as a stand-in for the process of interest.)

Where [3] appears, read: 10 mg/kg IP, brain tissue at 3 hours.

Turning to `Cc1ccc2c(=O)c3cccc(CC(=O)O)c3oc2c1C` [DMXAA, 5,6-dimethylxanthenone-4-acetic acid], in assay [1] (setting [3]), the “IRF3 related gene expression in brain” value was “significant increase” and the “induction of pro-inflammatory genes TNF in brain” value is listed as “minimal induction”. In addition, the “IRF-mediated gene induction in the brain” value in assay [1] (5-fold lower dose (2 mg/kg IP), 3 hours, compared to vehicle) was “minimal increase”. In assay [2] (Mus musculus, RAW264.7, expanded dose-response study, read-out: EC50 for activating mouse ISRE), the EC50 was ~16 µM. Moreover, the “ISRE activation” value in assay [2] (RAW264.7, 3 hours post-treatment, 96-well) is given as “most potent activators”.

One may read the EC50 as the concentration needed to bring the measured effect to its halfway point.
